According to ChEMBL document CHEMBL1772971, “Novel 18F-labeled benzofuran derivatives with improved properties for positron emission tomography (PET) imaging of β-amyloid plaques in Alzheimer's brains” (J Med Chem, 2011):
Active and inactive are the calls of the source. The rule behind the calls is not given here.

How the values were obtained:
Bone [1] = assay: Biodistribution in ddY mouse bone at 185 to 370 kBq, iv after 60 mins by gamma counting; format: ADME, organism-based, Bone element; settings: in vivo, 1 h
Brain [2] = assay: Ratio of drug level in brain after 2 mins to brain after 60 mins in ddY mouse […] at 185 to 370 kBq, iv; format: ADME, organism-based; settings: in vivo
Brain [3] = assay: Biodistribution in ddY mouse brain at 185 to 370 kBq, iv after 60 mins by gamma counting; format: ADME, organism-based; settings: in vivo, 1 h
Brain [4] = assay: Biodistribution in ddY mouse brain at 185 to 370 kBq, iv after 2 mins by gamma counting; format: ADME, organism-based; settings: in vivo
Brain [5] = assay: Biodistribution in ddY mouse brain at 185 to 370 kBq, iv after 30 mins by gamma counting; format: ADME, organism-based; settings: in vivo, 0.5 h
Blood [6] = assay: Biodistribution in ddY mouse blood at 185 to 370 kBq, iv after 30 mins by gamma counting; format: ADME, organism-based; settings: in vivo, 0.5 h
Brain [7] = assay: Biodistribution in ddY mouse brain at 185 to 370 kBq, iv after 10 mins by gamma counting; format: ADME, organism-based; settings: in vivo
Bone [8] = assay: Biodistribution in ddY mouse bone at 185 to 370 kBq, iv after 10 mins by gamma counting; format: ADME, organism-based, Bone element; settings: in vivo
Bone [9] = assay: Biodistribution in ddY mouse bone at 185 to 370 kBq, iv after 2 mins by gamma counting; format: ADME, organism-based, Bone element; settings: in vivo
Blood [10] = assay: Biodistribution in ddY mouse blood at 185 to 370 kBq, iv after 2 mins by gamma counting; format: ADME, organism-based; settings: in vivo
Blood [11] = assay: Biodistribution in ddY mouse blood at 185 to 370 kBq, iv after 10 mins by gamma counting; format: ADME, organism-based; settings: in vivo
Bone [12] = assay: Biodistribution in ddY mouse bone at 185 to 370 kBq, iv after 30 mins by gamma counting; format: ADME, organism-based, Bone element; settings: in vivo, 0.5 h
Blood [13] = assay: Biodistribution in ddY mouse blood at 185 to 370 kBq, iv after 60 mins by gamma counting; format: ADME, organism-based; settings: in vivo, 1 h
[14] = Displacement of [125I]IMPY from amyloid beta (1 to 42) after 3 hrs by gamma counting
[15] = molecular target: Amyloid-beta precursor protein (Homo sapiens) (UniProt P05067); assay: Binding affinity to beta amyloid plaques in normal human brain at 444 kBq/50 uL after 1 hr by autoradiography; settings: tested as the 18F-labelled form
[16] = molecular target: Amyloid-beta precursor protein (Homo sapiens) (UniProt P05067); assay: Binding affinity to beta amyloid plaques in human Alzheimer's disease brain at 444 kBq/50 uL after 1 hr by autoradiography; settings: tested as the 18F-labelled form

Sequence of Amyloid-beta precursor protein (Homo sapiens) (P05067 whole entry): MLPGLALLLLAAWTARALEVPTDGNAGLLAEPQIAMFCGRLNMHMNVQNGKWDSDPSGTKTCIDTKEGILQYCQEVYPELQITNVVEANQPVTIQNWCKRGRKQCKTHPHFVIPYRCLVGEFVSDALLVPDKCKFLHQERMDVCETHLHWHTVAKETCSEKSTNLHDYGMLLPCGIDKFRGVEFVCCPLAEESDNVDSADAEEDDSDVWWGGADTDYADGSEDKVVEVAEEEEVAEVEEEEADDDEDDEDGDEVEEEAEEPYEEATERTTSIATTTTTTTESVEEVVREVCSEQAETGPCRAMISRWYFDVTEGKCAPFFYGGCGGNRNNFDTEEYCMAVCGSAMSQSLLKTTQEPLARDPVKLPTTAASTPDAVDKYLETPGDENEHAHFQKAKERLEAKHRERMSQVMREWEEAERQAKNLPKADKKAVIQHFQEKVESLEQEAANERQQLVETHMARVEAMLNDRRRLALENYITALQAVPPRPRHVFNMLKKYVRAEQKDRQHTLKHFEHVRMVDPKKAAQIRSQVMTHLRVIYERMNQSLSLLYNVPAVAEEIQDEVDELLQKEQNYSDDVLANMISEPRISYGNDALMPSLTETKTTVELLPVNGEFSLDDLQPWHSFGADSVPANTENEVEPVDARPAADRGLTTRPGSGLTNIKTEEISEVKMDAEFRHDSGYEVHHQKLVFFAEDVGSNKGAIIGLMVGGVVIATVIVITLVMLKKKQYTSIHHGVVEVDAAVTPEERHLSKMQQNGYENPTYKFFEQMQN

Q: For `CN(C)c1ccc(-c2cc3cc(OCCOCCOCC[18F])ccc3o2)cc1`, which Drug uptake (Bone [1]) is on record?
A: 2.74 % ID/g

Q: And the Ratio (Brain [2])?
A: 1.02

Q: And the Drug uptake (Brain [3])?
A: 2.8 % ID/g

Q: And the Drug uptake (Brain [4])?
A: 2.88 % ID/g

Q: And the Drug uptake (Brain [5])?
A: 3.14 % ID/g

Q: What about the Drug uptake (Blood [6]) of the same compound?
A: 2.68 % ID/g

Q: What about the Drug uptake (Brain [7]) of the same compound?
A: 5.66 % ID/g

Q: What about the Drug uptake (Bone [8]) of the same compound?
A: 1.76 % ID/g

Q: And the Drug uptake (Bone [9])?
A: 1.19 % ID/g

Q: And the Drug uptake (Blood [10])?
A: 1.64 % ID/g

Q: And the Drug uptake (Blood [11])?
A: 2.48 % ID/g

Q: What about the Drug uptake (Bone [12]) of the same compound?
A: 3.63 % ID/g

Q: And the Drug uptake (Blood [13])?
A: 3.41 % ID/g

Q: Which Ki [14] does the source give for `CN(C)c1ccc(-c2cc3cc(OCCOCCOCCF)ccc3o2)cn1` here?
A: 0.95 nM

Q: Which Ratio (Brain [2]) does the source give for `CNc1ccc(/C=C/c2ccc(OCCOCCOCC[18F])nc2)cc1` [FLORBETAPIR F 18] here?
A: 3.8

Q: With `CNc1ccc(-c2cc3cc(OCCOCCOCCF)ccc3o2)cc1` as the compound, how does the Ki [14] read?
A: 3.85 nM

Q: And the Activity [15]?
A: inactive

Q: For `CNc1ccc(-c2cc3cc(OCCOCCOCCF)ccc3o2)cn1`, which Ki [14] is on record?
A: 2.41 nM

Q: What about the Activity [16] of the same compound?
A: Active
